# Experiments:
# [1] = tested on: HLA-E on HT29 and SW620 cells; assay: Flow cytometry of surface HLA-E after IFN-gamma, STAT1 KO vs control KO; assay type: cell-based, human; conditions: HT29 and SW620, 5 ng/ml IFN-gamma overnight
# Method: (§1) HT29 and SW620 cells were transduced with sgRNAs against STAT1 (or control OR genes) and treated overnight with vs. without 5 ng/ml IFN-gamma prior to staining. […] FIG. 6D CTG cytotoxicity assays (see Methods) for HT29 cells with HLA-E KO compared with control KO (data are represented as CTG cytotoxicity assays for HT29, SW620 cells with sgRNA against STAT1 (left) or HLA-E (right) or control KO (using OR10A2) at E:T 1:1, using 3-4 donors per line, n=7 different co-cultures, each co-culture was conducted in 6 replicates. (STAT1 p=7.24E-6, HLA-E p=2.27E-7, Mann-Whitney two sided test n=42). Data are represented as mean±SD). […] Pools of cells of the PRISM DNA-barcoded cell lines were labeled with a fluorescent conjugated antibody, sorted by flow cytometer into four bins based on its fluorescence levels and then sequenced to quantify the read counts of each barcode (and thus presence of cells from each cell line) in each bin. Surface protein expression scores were calculated per line from the read counts in each bin (see Method). […] Upper right: Normalized read counts of each bin sorted by SPIN. In view of the dynamic range of the antibody staining, the four bins were combined into two; reads from the top 2 bins with highest expression are labeled ‘High’ and reads from the 2 bins with lower staining are labeled ‘Low’. Middle right: calculated protein scores. […]
# [2] = tested on: HLA-A/B/C on HT29 and SW620 cells; assay: Flow cytometry of surface HLA-A/B/C after IFN-gamma, STAT1 KO vs control KO; assay type: cell-based, human; conditions: HT29 and SW620, 5 ng/ml IFN-gamma overnight
# Method: as §1
substance,measurement,setting,value
IFN-gamma: interferon-gamma used to stimulate HLA-E and MHC class I expression on tumor cells,HLA-E surface expression upon IFN-gamma stimulation,[1],"upregulated in control KO, but not with STAT1 KO"
same,HLA-A/B/C surface expression upon IFN-gamma stimulation,[2],"further increased with IFN-gamma stimulation in the control KO, but not in STAT1 KO cells"
